# Results from patent publication US20100093715A1, “Plant productivity enhancement by combining chemical agents with transgenic modifications” (BASF SE, priority 2007, published 2010).
# Tests used:
# [1] = system: J553x(HIIIAxA188) null and transgenic corn; assay: Fipronil/Pyraclostrobin study, second trial: seed treatment, greenhouse growth, LemnaTec Scanalyzer imaging; format: in vivo, maize (Zea Mays L.)
# Procedure: (§1) J553x(HIIIAxA188) null and transgenic corn seeds of the T2 generation were treated with deionized water (Blank), 200 grams fipronil, 10 grams pyraclostrobin (F500), and 200 grams fipronil+10 grams pyraclostrobin; all formulation rates were grams/100 kg seed. Every formulation was applied to approximately 80 seeds. The formulation was pipetted into a 125 ml flask along the sides and bottom of the flask before adding the seeds and shaking the flask for 30 seconds. The coated seeds were then removed from the flask and placed in a plastic dish for drying.
# (§2) Seventy-five 3-L pots per treatment (Blank, fipronil, pyraclostrobin, and fipronil+pyraclostrobin) were filled with potting media, labeled with colored stakes, and given a unique barcode. One seed per pot was planted at a depth of approximately 2 cm and covered with media. The media was lightly watered to imbibe the seeds, while allowing for ample oxygen exchange and so that the chemical coatings on the seeds remained intact. After planting, the pots were randomly distributed into three replicate blocks (1 bench=1 block), each with 25 plants of every treatment.
# (§3) The plants were maintained in a greenhouse under optimal, well-watered conditions (80-90% field capacity) upon emergence. Supplemental nutrients were administered every third day during watering. The greenhouse temperature was maintained at 30° C., relative humidity at 75%, and light at 350 μmol m^−2s^−1, in a 15-hour day/9-hour night photoperiod. Supplemental lighting was provided using metal-halide lights. Once per week, the pots were randomly mixed within each block.
# (§4) On day 21, the plants were imaged to collect the phenotypic data as described in the Imaging Procedures section. Leaves were sampled for transgene copy number on day 25 to identify the null and transgenic plants. On day 28, the plants were imaged and then harvested to collect fresh weight. The presence of the transgene was determined by the Taqman molecular analysis technique. Differences in the phenotypic data collected during the imaging process and in fresh weight among the four treatments and between the null and transgenic plants were assessed. The chemical by transgenic interactions were determined.
# (§5) Imaging of the plants was facilitated using a LemnaTec Scanalyzer (Würselen, Germany), which includes a conveyor belt, an imaging station, a watering station, and computers for collecting, processing, and storing the image data. The cameras have a resolution of 1280×960 pixels and operate in 24-bit color.
# (§6) The plants were manually transferred by block onto the conveyor system of the scanalyzer. Each plant was then moved through the imager automatically. At the imaging station, cameras collected the top view image and two side view images. The side view images were the transverse view and the view parallel with the plane of the plant.
# (§7) As described in the formula (see Appendix A), the scanalyzer calculates plant volume as a number of pixels. To assign a physiologically meaningful value to the volume measurements, a separate experiment was conducted. The plants were scanned with the scanalyzer then harvested. The plant material was placed into a graduated cylinder filled to a known volume with water. The difference between the water plus plant material and water alone provided a known plant volume in mL.
# (§8) Using the LemnaTec scanalyzer, we collected stem width; stalk volume; top, transverse, and parallel view plant areas; top, transverse, and parallel view green and yellow pixel counts; stem length; leaf angles and internode lengths through leaf 5; plant width and height; total leaf length; and total plant length.
# (§9) Fresh Weight—A measurement of the fresh weight of the plant in grams. Hand-collected fresh weight is measured by harvesting the plant and weighing it on a balance. LemnaTec fresh weight is calculated by the scanalyzer based on plant volume and plant age. The zoom angles of the camera lenses are normalized using a calibration table. […]
# [2] = system: J553x(HIIIAxA188) null and transgenic corn; assay: Fipronil/Pyraclostrobin study, initial trial: seed treatment, greenhouse growth, LemnaTec Scanalyzer imaging and harvest; format: in vivo, maize (Zea Mays L.); settings: for Internode 1 length / Internode 2 length / Internode 3 length: seed treatment; for Fresh Weight: hand-collected
# Procedure: as §1, §2, §3, §4, §5, §6, §7, §8, §9
smiles,measurement,setting,value
"COC(=O)N(OC)c1ccccc1COc1ccn(-c2ccc(Cl)cc2)n1 [F500, pyraclostrobin]","Plant volume, significance of treatment",[1],significant at 99%
same,"dark green pixel count, significance of treatment",[1],significant at 99%
same,Broad Side Drk Grn,[1]; Avg,26984.96 pixels
same,Broad Side Plnt Area,[1]; Avg,38169.74 pixels
same,Calc Fresh Weight,[1]; Avg,105.47 g
same,Narrow Side Drk Grn,[1]; Avg,27393.61 pix
same,Plant Volume,[1]; Avg,10.47 M pixels
same,Top Drk Grn,[1]; Avg,59991.92 pixels
same,Broad Side Drk Grn,[1]; Null plants,26088.87 pixels
same,Broad Side Plnt Area,[1]; Null plants,36740.30 pixels
same,Calc Fresh Weight,[1]; Null plants,100.53 g
same,Narrow Side Drk Grn,[1]; Null plants,26394.93 pix
same,Plant Volume,[1]; Null plants,9.90 M pixels
same,Top Drk Grn,[1]; Null plants,57676.78 pixels
same,Broad Side Drk Grn,[1]; Trans plants,27881.04 pixels
same,Broad Side Plnt Area,[1]; Trans plants,39599.17 pixels
same,Calc Fresh Weight,[1]; Trans plants,110.41 g
same,Narrow Side Drk Grn,[1]; Trans plants,28392.28 pix
same,Plant Volume,[1]; Trans plants,11.04 M pixels
same,Top Drk Grn,[1]; Trans plants,62307.07 pixels
same,photosynthetic health (in words),[1]; in general,enhanced
same,plant size (in words),[1]; in general,enhanced
same,# Fully Expanded Leaves,[2]; Avg,3.0
same,Leaf Angle 0,[2]; Avg,46.6 degrees
same,Leaf Angle 1,[2]; Avg,37.4 degrees
same,Plant Volume,[2]; Avg,6.43E+06 pixels
same,Stem Length,[2]; Avg,104.4 cm
same,"stalk area from the transverse view, Pixel Count",[2]; Avg,4724 pixels
same,Internode 1 length,[2]; Avg of null and transgenic,34.3 cm
same,Internode 2 length,[2]; Avg of null and transgenic,38.4 cm
same,Internode 3 length,[2]; Avg of null and transgenic,40.7 cm
same,# Fully Expanded Leaves,[2]; Null plants,2.9
same,Leaf Angle 0,[2]; Null plants,39.2 degrees
same,Leaf Angle 1,[2]; Null plants,36.5 degrees
same,Plant Volume,[2]; Null plants,6.18E+06 pixels
same,Stem Length,[2]; Null plants,97.2 cm
same,"stalk area from the transverse view, Pixel Count",[2]; Null plants,4725 pixels
same,Internode 1 length,[2]; Null plants,32.5 cm
same,Internode 2 length,[2]; Null plants,36.0 cm
same,Internode 3 length,[2]; Null plants,38.8 cm
same,Internode 1 length,[2]; Trans (transgenic) plants,35.9 cm
same,Internode 2 length,[2]; Trans (transgenic) plants,40.4 cm
same,Internode 3 length,[2]; Trans (transgenic) plants,42.1 cm
same,# Fully Expanded Leaves,[2]; Trans plants,3.1
same,Leaf Angle 0,[2]; Trans plants,52.5 degrees
same,Leaf Angle 1,[2]; Trans plants,38.2 degrees
same,Plant Volume,[2]; Trans plants,6.63E+06 pixels
same,Stem Length,[2]; Trans plants,110.2 cm
same,"stalk area from the transverse view, Pixel Count",[2]; Trans plants,4723 pixels
same,Fresh Weight,[2]; Avg,155.3 grams
same,Fresh Weight,[2]; Null plants,155.7 grams
same,Fresh Weight,[2]; Trans plants,155.0 grams
same,Dark Green Count,"[2]; parallel view, Avg",14884.7 pixels
same,Medium Green Count,"[2]; parallel view, Avg",6153.1 pixels
same,Plant Area,"[2]; parallel view, Avg",23089.7 pixels
same,Yellow Count,"[2]; parallel view, Avg",2051.9 pixels
same,Dark Green Count,"[2]; parallel view, Null plants",14727.7 pixels
same,Medium Green Count,"[2]; parallel view, Null plants",5691.8 pixels
same,Plant Area,"[2]; parallel view, Null plants",22426.2 pixels
same,Yellow Count,"[2]; parallel view, Null plants",2006.6 pixels
same,Dark Green Count,"[2]; parallel view, Trans plants",15010.4 pixels
same,Medium Green Count,"[2]; parallel view, Trans plants",6522.1 pixels
same,Plant Area,"[2]; parallel view, Trans plants",23620.6 pixels
same,Yellow Count,"[2]; parallel view, Trans plants",2088.1 pixels
same,Medium Green Count,"[2]; top view, Avg",18542 pixels
same,Medium Green Count,"[2]; top view, Null plants",17893 pixels
same,Medium Green Count,"[2]; top view, Trans plants",19062 pixels
same,Medium Green Count,"[2]; transverse view, Avg",9584.5 pixels
same,Yellow Count,"[2]; transverse view, Avg",4227.2 pixels
same,Medium Green Count,"[2]; transverse view, Null plants",9303.7 pixels
same,Yellow Count,"[2]; transverse view, Null plants",4081.7 pixels
same,Medium Green Count,"[2]; transverse view, Trans plants",9809.2 pixels
same,Yellow Count,"[2]; transverse view, Trans plants",4343.5 pixels
